Earlier results on one compound are cited in patent US20030166469A1, “Crop harvesting method using a 1,2,4-triazol-1-ylpropanoic acid and derivatives” (priority 2001, published 2003).

The data set deals with cotton. The note with it: tested alone, no adjuvant; data of U.S. Pat. No. 6,444,613.

Bounds are passed on as bounds.

For the compound `CCOC(=O)C(Cl)Cc1cc(-n2nc(C)n(C(F)F)c2=O)c(F)cc1Cl` (stereo not drawn) [Compound Ic, ethyl α,2-dichloro-5-[4-(difluoromethyl)-4,5-dihydro-3-methyl-5-oxo-1H-1,2,4-triazol-1-yl]-4-fluoropropanoate], the defoliation of cotton was at most 29%.
